Laboratory results as given in PubChem BioAssay (NCI).
Values joined by “and” are separate entries in the source; they are usually repeats but may differ in a detail not shown here. Identical values can stand only once.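 Interpolation was linear, between the two tested concentrations surrounding the appropriate level; five concentrations were tested over 48 hours in 96-well plates. GI50 marks 50% less growth. TGI denotes the concentration required for complete inhibition of growth.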

Experiments:
Assay in all cases: NCI-60 cell line screen, 48 h
[1] = tested on: MDA-MB-435
[2] = tested on: NCI-H226 lung
[3] = tested on: HOP-92 NSCLC
[4] = tested on: COLO 205 colon
[5] = tested on: K-562 leukemia
[6] = tested on: SNB-19 CNS
[7] = tested on: M14 melanoma
[8] = tested on: MALME-3M melanoma
[9] = tested on: UO-31 renal
[10] = tested on: HOP-62 NSCLC

O=C1/C(=C/c2ccc(Cl)cc2)CN(Cc2cn(CCCNc3ccnc4cc(Cl)ccc34)nn2)C/C1=C\c1ccc(Cl)cc1
GI50 [1]: 1.3 µM | TGI [1]: 2.69 µM | GI50 [2]: 1.92 µM | TGI [2]: 4.39 µM | GI50 [3]: 1.46 µM | TGI [3]: 3.18 µM | GI50 [4]: 0.565 µM | TGI [4]: 1.8 µM | GI50 [5]: 0.289 µM | TGI [5]: 3.79 µM | GI50 [6]: 0.643 µM | TGI [6]: 1.86 µM | GI50 [7]: 1.72 µM | TGI [7]: 3.68 µM | GI50 [8]: 1.71 µM | TGI [8]: 3.28 µM | GI50 [9]: 1.16 µM | TGI [9]: 2.45 µM | GI50 [10]: 1.47 µM | TGI [10]: 2.94 µM

Nc1nc2ccc(CNc3ccc(C(=O)NC(CC(=O)O)C(=O)O)cc3)cc2c(=O)[nH]1 (stereo not drawn)
GI50 [1]: 0.514 µM | TGI [1]: > 100 µM | GI50 [2]: > 65.3 µM | TGI [2]: > 100 µM | GI50 [3]: > 51 µM | TGI [3]: > 100 µM | GI50 [4]: 10.7 µM | TGI [4]: > 100 µM | GI50 [5]: 0.437 µM | TGI [5]: > 100 µM | GI50 [6]: > 82.5 µM | TGI [6]: > 100 µM | TGI [7]: > 100 µM | GI50 [8]: > 33.3 µM | TGI [8]: > 100 µM | GI50 [9]: 9.74 µM | TGI [9]: > 100 µM | TGI [10]: > 100 µM

O=C(O)CN1C(=O)OC(c2ccccc2)C1=O (stereo not drawn)
TGI [1]: > 100 µM | TGI [2]: > 100 µM | TGI [3]: > 100 µM | TGI [4]: > 100 µM | TGI [5]: > 100 µM | TGI [6]: > 100 µM | TGI [7]: > 100 µM | TGI [8]: > 100 µM | TGI [9]: > 100 µM | TGI [10]: > 100 µM

CCOC(=O)C1=C(C)NC2SC(=O)/C(=C\c3cccc(Cl)c3)N2C1c1ccccc1 (stereo not drawn)
GI50 [1]: > 100 µM | TGI [1]: > 100 µM | GI50 [2]: > 100 µM | TGI [2]: > 100 µM | GI50 [3]: > 100 µM | TGI [3]: > 100 µM | GI50 [4]: > 100 µM | TGI [4]: > 100 µM | GI50 [5]: > 100 µM | TGI [5]: > 100 µM | GI50 [6]: > 100 µM | TGI [6]: > 100 µM | GI50 [7]: > 100 µM | TGI [7]: > 100 µM | GI50 [8]: 28.3 µM | TGI [8]: > 100 µM | GI50 [9]: > 100 µM | TGI [9]: > 100 µM | GI50 [10]: > 100 µM | TGI [10]: > 100 µM

O=S(=O)(NCCNc1nccc(-c2c(-c3ccc(F)cc3)nc3sccn23)n1)c1ccc(O)cc1
GI50 [1]: 1.07 µM | TGI [1]: 14.8 µM | GI50 [2]: 6.91 µM | TGI [2]: 21.9 µM | GI50 [3]: 1.31 µM | TGI [3]: 9.07 µM | GI50 [4]: 2 µM | TGI [4]: 14.8 µM | GI50 [5]: 2.18 µM | TGI [5]: > 100 µM | GI50 [6]: 12.5 µM | TGI [6]: > 100 µM | GI50 [7]: 3.36 µM | TGI [7]: 18.1 µM | GI50 [8]: 3.92 µM | TGI [8]: 21.5 µM | GI50 [9]: 2.39 µM | TGI [9]: 16.7 µM | GI50 [10]: 14.3 µM | TGI [10]: 85.6 µM

COc1ccc(-c2cc(=O)c3c(OC)c4ccoc4c(/C=C/C=O)c3o2)cc1
GI50 [1]: 2.81 µM | TGI [1]: 32.3 µM | GI50 [2]: 2.93 µM | TGI [2]: 8.89 µM | GI50 [3]: 16.8 µM | TGI [3]: 98.7 µM | GI50 [4]: 27.5 µM | TGI [4]: 80.4 µM | GI50 [5]: 2.8 µM | TGI [5]: > 100 µM | GI50 [6]: 3.16 µM | TGI [6]: 46.6 µM | GI50 [7]: 2.24 µM | TGI [7]: 7.56 µM | GI50 [8]: 3.79 µM | TGI [8]: 8.3 µM | GI50 [9]: 3.17 µM | TGI [9]: 19.5 µM | GI50 [10]: 2.98 µM | TGI [10]: 11.1 µM

Cc1c(O)cccc1C(=O)N[C@@H](CSc1ccccc1)[C@H](O)CN1C[C@H]2CCCC[C@H]2C[C@H]1C(=O)NC(C)(C)C
GI50 [1]: 3.46 µM and 4.9 µM | TGI [1]: 12.8 µM and 38.4 µM | GI50 [2]: 4.84 µM and 5.57 µM | TGI [2]: 14 µM and 16.5 µM | GI50 [3]: 2.47 µM and 6.25 µM | TGI [3]: 7.62 µM and 25.2 µM | GI50 [4]: 2.24 µM and 4.05 µM | TGI [4]: 6.03 µM | GI50 [5]: 3.35 µM and 10.3 µM | TGI [5]: > 100 µM and 31.3 µM | GI50 [6]: 3.17 µM and 6.96 µM | TGI [6]: 16.1 µM and > 43.8 µM | GI50 [7]: 4.45 µM and 5.2 µM | TGI [7]: 16.4 µM and 15.4 µM | GI50 [8]: 2.13 µM and 7.03 µM | TGI [8]: 8.41 µM and 18.6 µM | GI50 [9]: 3.45 µM and 3.81 µM | TGI [9]: 16.4 µM and 19.5 µM | GI50 [10]: 7.26 µM and 5 µM | TGI [10]: 21.3 µM and 14.6 µM
